Molecular target: T1, AtTRM61/AtTRM6 complex (AtTRM61-His/AtTRM6-GST) (Arabidopsis thaliana, UniProt F4K6U9)
T1 construct: gene TRM61; CDSs of AtTRM61 (pET28a+, His tag) and AtTRM6 (pGEX-4T-2, GST tag) co-expressed in E. coli, Ni-NTA purified; tag removal not mentioned; heterodimeric complex; with tRNA (adenine(58)-N(1))-methyltransferase non-catalytic subunit TRM6
T1 sequence (F4K6U9 1-318): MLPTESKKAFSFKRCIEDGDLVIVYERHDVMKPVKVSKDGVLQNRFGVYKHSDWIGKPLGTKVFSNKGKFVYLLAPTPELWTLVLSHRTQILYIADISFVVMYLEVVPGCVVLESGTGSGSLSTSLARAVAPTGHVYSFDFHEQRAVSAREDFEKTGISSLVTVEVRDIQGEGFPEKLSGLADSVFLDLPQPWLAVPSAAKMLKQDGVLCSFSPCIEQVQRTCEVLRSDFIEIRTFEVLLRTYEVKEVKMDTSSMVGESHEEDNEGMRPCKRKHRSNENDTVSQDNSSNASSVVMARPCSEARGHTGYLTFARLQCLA
T1 sequence (O80846 1-446 partner): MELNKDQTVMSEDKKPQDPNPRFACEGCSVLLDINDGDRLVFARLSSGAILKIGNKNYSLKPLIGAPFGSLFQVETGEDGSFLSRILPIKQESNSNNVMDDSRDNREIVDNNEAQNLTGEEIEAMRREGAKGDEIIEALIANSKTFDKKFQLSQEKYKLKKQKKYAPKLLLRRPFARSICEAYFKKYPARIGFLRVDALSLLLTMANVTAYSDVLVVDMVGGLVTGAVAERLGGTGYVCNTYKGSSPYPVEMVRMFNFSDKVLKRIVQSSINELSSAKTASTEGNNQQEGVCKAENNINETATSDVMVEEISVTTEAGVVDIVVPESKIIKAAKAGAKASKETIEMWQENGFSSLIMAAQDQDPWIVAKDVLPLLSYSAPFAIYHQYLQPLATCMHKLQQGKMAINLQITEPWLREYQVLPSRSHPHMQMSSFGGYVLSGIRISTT
Assay: m1A formation on tRNA, anti-m1A immuno-northern blot
Assay type: biochemical
Settings: methyl donor, 30 mM AdoMet as printed; 150 nM RNA substrate (trm6-506 yeast tRNA or in vitro transcribed Arabidopsis tRNAiMet); 15 nM protein; 30 °C, 30 min

## C[S+](CC[C@H](N)C(=O)O)C[C@H]1O[C@@H](n2cnc3c(N)ncnc32)[C@H](O)[C@@H]1O (stereo partly drawn) [S-adenosyl-L-methionine]
  m1A formation on tRNA, anti-m1A immuno-northern blot: The purified complex was then incubated with a methyl donor (SAM)

Reference: PMC7475180, “The Arabidopsis TRM61/TRM6 complex is a bona fide tRNA N^1-methyladenosine methyltransferase” (Journal of Experimental Botany, 2020)
